# Measurements reported in ChEMBL document CHEMBL4359834 (J Med Chem, 2019).
# Active and inactive are the calls of the source. No cut-off for these calls is given here.
# Legend:
# [1] = Toxicity in po dosed female Wistar rat; assay type: organism-based; conditions: in vivo
# [2] = target: Serine/threonine-protein kinase mTOR (Homo sapiens, UniProt P42345); experiment: Displacement of Alexafluor labelled kinase tracer314 from recombinant human C-terminal GST-tagged mTOR (1360 to 2549 amino acids) expressed in insect cells incubated for 1 hr by FRET-based LanthaScreen Eu kinase binding assay
# [3] = Intrinsic clearance in dog hepatocytes assessed per 10^6 cells; assay type: ADME, cell-based, Canis lupus familiaris, Hepatocyte; conditions: read-out: CLH
# [4] = Clearance in C57BL/6J mouse plasma at 50 mg/kg, po administered as single dose by LC-MS analysis; assay type: ADME, organism-based
# A2058 [5] = experiment: Inhibition of Class 1 PI3K/mTOR in human A2058 cells assessed as reduction in p70S6K phosphorylation incubated for 1 hr by InCell Western assay; assay type: cell-based
# [6] = target: T1, Phosphatidylinositol 4,5-bisphosphate 3-kinase catalytic subunit alpha isoform (Homo sapiens, UniProt P42336); experiment: Displacement of Alexafluor labelled kinase tracer314 from recombinant N-terminal His6-tagged PI3K p110alpha (unknown origin) incubated for 1 hr by FRET-based LanthaScreen Eu kinase binding assay
# T1 sequence (P42336 whole entry, canonical isoform): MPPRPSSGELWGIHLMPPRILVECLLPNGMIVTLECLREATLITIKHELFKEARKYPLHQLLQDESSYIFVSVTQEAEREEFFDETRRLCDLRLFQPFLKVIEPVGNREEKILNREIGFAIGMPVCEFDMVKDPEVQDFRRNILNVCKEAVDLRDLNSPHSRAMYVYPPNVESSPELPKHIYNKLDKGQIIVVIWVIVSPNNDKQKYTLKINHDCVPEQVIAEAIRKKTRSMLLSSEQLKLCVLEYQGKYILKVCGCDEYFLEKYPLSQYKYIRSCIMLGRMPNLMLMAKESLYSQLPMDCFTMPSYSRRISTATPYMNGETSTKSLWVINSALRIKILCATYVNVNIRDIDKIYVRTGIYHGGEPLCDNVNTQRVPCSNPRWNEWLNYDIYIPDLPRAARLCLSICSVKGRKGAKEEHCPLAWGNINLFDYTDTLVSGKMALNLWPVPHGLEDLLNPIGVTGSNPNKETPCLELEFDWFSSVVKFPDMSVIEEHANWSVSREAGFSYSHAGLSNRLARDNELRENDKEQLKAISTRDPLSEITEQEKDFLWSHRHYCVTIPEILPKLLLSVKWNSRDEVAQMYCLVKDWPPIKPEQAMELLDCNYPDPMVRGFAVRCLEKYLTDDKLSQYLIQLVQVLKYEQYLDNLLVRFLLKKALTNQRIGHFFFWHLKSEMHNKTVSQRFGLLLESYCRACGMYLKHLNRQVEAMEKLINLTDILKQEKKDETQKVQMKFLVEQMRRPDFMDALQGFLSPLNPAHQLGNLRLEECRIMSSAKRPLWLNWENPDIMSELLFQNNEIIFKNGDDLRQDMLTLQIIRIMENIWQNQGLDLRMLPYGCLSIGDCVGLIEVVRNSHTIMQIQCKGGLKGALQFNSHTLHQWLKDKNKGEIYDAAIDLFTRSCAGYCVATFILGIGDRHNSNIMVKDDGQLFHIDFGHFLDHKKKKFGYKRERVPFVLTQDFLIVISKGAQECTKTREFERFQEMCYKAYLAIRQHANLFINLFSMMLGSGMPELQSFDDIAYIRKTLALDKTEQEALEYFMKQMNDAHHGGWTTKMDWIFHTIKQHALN
# [7] = Toxicity in po dosed female Beagle dog; assay type: organism-based, Canis lupus familiaris; conditions: in vivo
# [8] = Cmax in C57BL/6J mouse plasma at 50 mg/kg, po administered as single dose after 30 mins by LC-MS analysis; assay type: ADME, organism-based; parameters: dose 50 mg/kg, route oral
# [9] = Metabolic stability in mouse liver microsomes assessed as compound remaining after 30 mins; assay type: ADME, Microsome; conditions: read-out: Stability
# [10] = Inhibition of Class 1 PI3K/mTOR in human A2058 cells assessed as reduction in Akt phosphorylation at Ser473 residue incubated for 1 hr by InCell Western assay; assay type: cell-based; conditions: A2058, 1 h
# [11] = Toxicity in po dosed male Beagle dog; assay type: organism-based, Canis lupus familiaris; conditions: in vivo
# [12] = AUC (0 to 8 hrs) at steady state in female Wistar rat at 0.5 mg/kg, po after 4 weeks; assay type: ADME, organism-based; parameters: time < 8 hr, dose 0.5 mg/kg, route oral; conditions: in vivo
# [13] = Cmax in C57BL/6J mouse thigh muscle at 50 mg/kg, po administered as single dose after 30 mins by LC-MS analysis; assay type: ADME, organism-based; parameters: dose 50 mg/kg, route oral
# [14] = AUC (0 to 8 hrs) in C57BL/6J mouse plasma at 50 mg/kg, po administered as single dose by LC-MS analysis; assay type: ADME, organism-based; parameters: dose 50 mg/kg, time < 8 hr, route oral
# [15] = Half-life clearance in human hepatocytes; assay type: ADME, cell-based, Hepatocyte
# [16] = Terminal half-life in C57BL/6J mouse brain at 50 mg/kg, po administered as single dose by LC-MS analysis; assay type: ADME, organism-based; conditions: read-out: beta t1/2 (converted)
# [17] = Half-life in dog hepatocytes; assay type: ADME, cell-based, Canis lupus familiaris, Hepatocyte
# [18] = AUClast at steady state in female Beagle dog at 3 mg/kg/day, po after 4 weeks; assay type: ADME, organism-based, Canis lupus familiaris; conditions: in vivo
# OVCAR-3 = experiment: Antitumor activity against human OVCAR3 cells xenografted in BALB/c nude mouse assessed as reduction in tumor growth at 25 mg/kg, po administered once daily starting from 17 days post inoculation and measured thrice per week; assay type: functional, organism-based
# [19] = Toxicity in po dosed male Wistar rat; assay type: organism-based; conditions: in vivo
# Mus musculus [20] = experiment: In vivo inhibition of Class 1 PI3K/mTOR in C57BL/6J mouse assessed as increase in plasma glucose level at 50 mg/kg, po administered as single dose after 10 mins to 1 hr by colorimetric assay; assay type: functional, organism-based
# [21] = Toxicity in BALB/c nude mouse assessed as effect on body weight at 25 mg/kg, po administered once daily starting from 17 days post inoculation and measured after 20 to 40 days post inoculation; assay type: organism-based; conditions: in vivo
# [22] = Terminal half-life in C57BL/6J mouse thigh muscle at 50 mg/kg, po administered as single dose by LC-MS analysis; assay type: ADME, organism-based; conditions: read-out: beta t1/2 (converted)
# [23] = AUC (0 to 8 hrs) at steady state in male Wistar rat at 1 mg/kg/day, po after 4 weeks; assay type: ADME, organism-based; parameters: dose 1 mg/kg/day, time < 8 hr, route oral; conditions: in vivo
# SK-OV-3 = experiment: Antiproliferative activity against human SKOV3 cells at 5 to 0.02 uM after 72 hrs by […] staining based assay; assay type: functional, cell-based
# [24] = AUClast at steady state in male Beagle dog at 1 mg/kg/day, po after 4 weeks; assay type: ADME, organism-based, Canis lupus familiaris; conditions: in vivo
# [25] = AUC (0 to 8 hrs) in C57BL/6J mouse brain at 50 mg/kg, po administered as single dose by LC-MS analysis; assay type: ADME, organism-based; parameters: dose 50 mg/kg, time < 8 hr, route oral
# [26] = Intrinsic clearance in rat hepatocytes assessed per 10^6 cells; assay type: ADME, cell-based, Hepatocyte; conditions: read-out: CLH
# [27] = target: PI3-kinase p110-alpha/p85-alpha (Homo sapiens) (UniProt P27986+P42336); experiment: Inhibition of Wortmannin covalent binding to N-terminal His-tagged recombinant human PI3K p110alpha/p85alpha Lys802 expressed in baculovirus expression system preincubated for 1 hr followed by Wortmannin addition and measured after 20 mins by SDS-PAGE based immunoblot assay
# [28] = Metabolic stability in rat liver microsomes assessed as compound remaining after 30 mins; assay type: ADME, Microsome; conditions: read-out: Stability
# [29] = Intrinsic clearance in human hepatocytes assessed per 10^6 cells; assay type: ADME, cell-based, Hepatocyte; conditions: read-out: CLH
# [30] = Metabolic stability in human liver microsomes assessed as compound remaining after 30 mins; assay type: ADME, Microsome; conditions: read-out: Stability
# [31] = Terminal half-life in C57BL/6J mouse plasma at 50 mg/kg, po administered as single dose by LC-MS analysis; assay type: ADME, organism-based; conditions: read-out: beta t1/2 (converted)
# Homo sapiens = organism: Homo sapiens; experiment: Inhibition of Class 1 PI3K/mTOR in human SKOV3 cells assessed as reduction in Akt phosphorylation at Ser473 residue incubated for 1 hr by InCell Western assay; assay type: cell-based
# [32] = target: Phosphatidylinositol 4,5-bisphosphate 3-kinase catalytic subunit gamma isoform (Homo sapiens, UniProt P48736); experiment: Binding affinity to wild-type human partial length PIK3CG (S144 to A1102 residues) expressed in mammalian expression system by quantitative PCR based KINOMEscan assay
# Phosphatidylinositol 4,5-bisphosphate 3-kinase catalytic subunit gamma isoform, sequence (P48736 whole entry, the tested form may be a part, canonical isoform): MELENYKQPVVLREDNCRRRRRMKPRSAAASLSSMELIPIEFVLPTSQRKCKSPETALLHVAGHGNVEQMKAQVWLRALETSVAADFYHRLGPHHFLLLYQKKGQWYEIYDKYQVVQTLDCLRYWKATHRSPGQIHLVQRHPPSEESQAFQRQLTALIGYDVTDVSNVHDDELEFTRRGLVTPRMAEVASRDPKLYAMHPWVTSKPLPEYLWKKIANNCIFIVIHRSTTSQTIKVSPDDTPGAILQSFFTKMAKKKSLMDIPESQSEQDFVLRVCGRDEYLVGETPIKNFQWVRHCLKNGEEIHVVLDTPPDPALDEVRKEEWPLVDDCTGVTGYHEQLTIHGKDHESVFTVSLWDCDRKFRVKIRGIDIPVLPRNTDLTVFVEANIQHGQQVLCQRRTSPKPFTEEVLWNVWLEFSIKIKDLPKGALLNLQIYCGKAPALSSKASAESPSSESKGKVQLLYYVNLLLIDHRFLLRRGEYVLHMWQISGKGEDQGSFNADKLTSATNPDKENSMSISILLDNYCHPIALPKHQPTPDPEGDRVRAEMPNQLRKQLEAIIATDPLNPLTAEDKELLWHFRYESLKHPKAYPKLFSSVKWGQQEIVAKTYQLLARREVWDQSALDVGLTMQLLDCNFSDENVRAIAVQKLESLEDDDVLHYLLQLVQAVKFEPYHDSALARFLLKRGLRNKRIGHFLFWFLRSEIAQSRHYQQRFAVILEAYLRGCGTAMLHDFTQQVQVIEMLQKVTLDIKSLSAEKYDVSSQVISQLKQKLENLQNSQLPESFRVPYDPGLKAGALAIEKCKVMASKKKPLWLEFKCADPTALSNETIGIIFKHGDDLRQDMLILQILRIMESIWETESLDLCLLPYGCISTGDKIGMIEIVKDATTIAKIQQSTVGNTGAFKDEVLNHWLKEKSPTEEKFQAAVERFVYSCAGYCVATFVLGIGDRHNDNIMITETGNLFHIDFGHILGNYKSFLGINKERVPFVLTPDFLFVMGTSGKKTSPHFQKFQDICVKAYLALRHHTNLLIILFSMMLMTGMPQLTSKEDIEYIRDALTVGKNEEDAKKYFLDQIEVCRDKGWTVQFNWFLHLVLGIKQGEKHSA
# cells = conditions: Homo sapiens, A2058, 1 h
# Description: Inhibition of Class 1 PI3K/mTOR in human A2058 cells assessed as reduction in S6 phosphorylation at Ser235/236 residue incubated for 1 hr by InCell Western assay
# [33] = AUC (0 to 8 hrs) in C57BL/6J mouse thigh muscle at 50 mg/kg, po administered as single dose by LC-MS analysis; assay type: ADME, organism-based; parameters: dose 50 mg/kg, time < 8 hr, route oral
# [34] = Intrinsic clearance in mouse hepatocytes assessed per 10^6 cells; assay type: ADME, cell-based, Hepatocyte; conditions: read-out: CLH
# Mus musculus [35] = experiment: In vivo inhibition of Class 1 PI3K/mTOR in C57BL/6J mouse assessed as increase in plasma glucose level at 50 mg/kg, po administered as single dose after 2 hr by colorimetry based immunoassay; assay type: functional, organism-based
# [36] = Tmax in C57BL/6J mouse thigh muscle at 50 mg/kg, po administered as single dose by LC-MS analysis; assay type: ADME, organism-based
# A2058 [37] = experiment: Inhibition of Class 1 PI3K/mTOR in human A2058 cells assessed as reduction in Akt phosphorylation incubated for 1 hr by InCell Western assay; assay type: cell-based
# [38] = Half-life in mouse hepatocytes; assay type: ADME, cell-based, Hepatocyte
# [39] = Half-life in rat hepatocytes; assay type: ADME, cell-based, Hepatocyte
# [40] = Metabolic stability in dog liver microsomes assessed as compound remaining after 30 mins; assay type: ADME, Canis lupus familiaris, Microsome; conditions: read-out: Stability
# [41] = Fraction unbound in rat brain; assay type: ADME, tissue-based
# A2058 [42] = experiment: Inhibition of Class 1 PI3K/mTOR in human A2058 cells assessed as reduction in GSK3 phosphorylation incubated for 1 hr by InCell Western assay; assay type: cell-based
# [43] = Tmax in C57BL/6J mouse brain at 50 mg/kg, po administered as single dose by LC-MS analysis; assay type: ADME, organism-based
# [44] = target: T1, Phosphatidylinositol 4,5-bisphosphate 3-kinase catalytic subunit alpha isoform; experiment: Binding affinity to wild-type human partial length PIK3CA (R108 to N1068 residues) expressed in mammalian expression system by quantitative PCR based KINOMEscan assay
# A2058 [45] = experiment: Antiproliferative activity against human A2058 cells at 5 to 0.02 uM after 72 hrs by […] staining based assay; assay type: functional, cell-based
# [46] = Cmax in C57BL/6J mouse brain at 50 mg/kg, po administered as single dose after 30 mins by LC-MS analysis; assay type: ADME, organism-based; parameters: dose 50 mg/kg, route oral
# [47] = Tmax in C57BL/6J mouse plasma at 50 mg/kg, po administered as single dose by LC-MS analysis; assay type: ADME, organism-based
compound,measurement,setting,value
C[C@H]1COCCN1c1nc(-c2cnc(N)cc2C(F)F)nc(N2CCOCC2)n1,NOAEL,[1],0.5 mg/kg
same,Ki,[2],7.4 nM
same,hepatocyte CLint,[3],10 µL/min/1e6 cells
same,CL/F,[4],20.9 mL/min/kg
same,inhibition,A2058 [5],Active
same,Ki,[6],11.1 nM
same,NOAEL,[7],3 mg/kg/day
same,Cmax,[8],7800 ng/mL
same,remaining at 0.5 h,[9],73.2%
same,IC50,[10],62.2 nM
same,NOAEL,[11],1 mg/kg/day
same,AUC at 8 h,[12],599 ng·h/mL
same,Cmax,[13],11900 ng/mL
same,AUC(0-t) at 8 h,[14],27900 ng·h/mL
same,half-life,[15],4.17 h
same,half-life,[16],4.8 h
same,half-life,[17],2.37 h
same,AUC(0-t) at 672 h,[18],1070 ng·h/mL
same,Activity,OVCAR-3,Active
same,NOAEL,[19],1 mg/kg/day
same,inhibition,Mus musculus [20],Active
same,Activity,[21],Non-Toxic
same,half-life,[22],3.5 h
same,AUC at 8 h,[23],335 ng·h/mL
same,Activity,SK-OV-3,Active
same,AUC(0-t) at 672 h,[24],127 ng·h/mL
same,AUC(0-t) at 8 h,[25],46500 ng·h/mL
same,hepatocyte CLint,[26],7 µL/min/1e6 cells
same,inhibition,[27],Active
same,remaining at 0.5 h,[28],106%
same,hepatocyte CLint,[29],6 µL/min/1e6 cells
same,remaining at 0.5 h,[30],81.5%
same,half-life,[31],4.7 h
same,inhibition,Homo sapiens,Active
same,Kd,[32],10 nM
same,IC50,cells,61.9 nM
same,AUC(0-t) at 8 h,[33],39200 ng·h/mL
same,hepatocyte CLint,[34],11 µL/min/1e6 cells
same,inhibition,Mus musculus [35],Active
same,Tmax,[36],0.5 h
same,inhibition,A2058 [37],Active
same,half-life,[38],2.37 h
same,half-life,[39],3.2 h
same,remaining at 0.5 h,[40],97.4%
same,fraction unbound,[41],0.08
same,inhibition,A2058 [42],Active
same,Tmax,[43],0.5 h
same,Kd,[44],0.84 nM
same,Activity,A2058 [45],Active
same,Cmax,[46],12600 ng/mL
same,Tmax,[47],0.5 h
